# What was measured:
# [1] = system: human myelogenous leukemia K562; assay: MTS cytotoxicity assay, K562; format: cell-based
# Method: (§1) In order to obtain information about the growth-inhibiting action of hydrazones reported in the present invention on tumor cells, growth inhibition was assessed for the following human tumor cell lines: human myelogenous leukemia K562, human cervical adenocarcinoma HeLa, human colon adenocarcinoma Caco-2, human colon carcinoma HT-29, human colon carcinoma HCT-15, and human breast carcinoma MCF-7.
# (§2) The K562, HeLa, HT-29, HCT-15, Caco-2, and MCF-7 cell lines were obtained from the American type Culture Collection (ATCC, Manassas, Va.). K562 cells were maintained in RPMI 1640 medium (Gibco/Life Technologies, Gaithersburg, Md.) containing 10% heat-inactivated fetal bovine serum (FBS) (Atlanta Biologicals, Atlanta, Ga.) and 10000 U/L penicillin and 50 mg/L streptomycin. HeLa, HT-29, HCT-15, Caco-2 and MCF-7 cells were maintained in MEM with Earl's balanced salts, 10% FBS, penicillin, and streptomycin as above. Logarithmically growing HT-29, Caco-2, and MCF-7 cells were incubated with 0.05% trypsin containing 1 mM EDTA at 37° C. for about 5 min until cells were nonadherent and formed a single cell suspension. Trypsin activity was neutralized by adding 20-fold excess of the serum-containing medium. Cells were cultured at 37° C. in an atmosphere of air and 5% CO2.
# (§3) Cytotoxicity assays were conducted by tetrazolium reduction of 3-(4,5-dimethylthiazol-2-yl)-5-(3-carboxymethoxyphenyl)-2-(4-sulfophenyl)-2H-tetrazolium (MTS) with N-methylphenazonium methyl sulfate (PMS) (CellTiter Assay, Promega, Madison, Wis.). Logarithmically growing cells were plated in 0.1 mL aliquots in 96-well microtiter plates. Cells were plated at an initial density of about 5000 cells/mL and allowed to acclimatize for 24 h. Cell suspensions were treated with various dilutions of compounds in triplicate, mixed well, and allowed to incubate for 48 h at 37° C. in an atmosphere of air and 5% CO2. To the cell suspension was added 20 μL of tetrazolium reagent, the mixture was incubated for 2 h at 37° C. in an atmosphere of air and 5% CO2, and absorbance at 490 nm was read by microplate reader. Control plates with serial dilutions of cell types were counted as a control for the assay. In all cases, controls indicated a linear response versus cell number, R^2≧0.99.
# [2] = system: human colon carcinoma HT-29; assay: MTS cytotoxicity assay, HT-29; format: cell-based
# Method: as §1, §2, §3
# [3] = system: human colon adenocarcinoma Caco-2; assay: MTS cytotoxicity assay, Caco-2; format: cell-based
# Method: as §1, §2, §3
# [4] = system: human cervical adenocarcinoma HeLa; assay: MTS cytotoxicity assay, HeLa; format: cell-based; settings: 48 h incubation
# Method: as §1, §2, §3
# [5] = system: human breast carcinoma MCF-7; assay: MTS cytotoxicity assay, MCF-7; format: cell-based
# Method: as §1, §2, §3
# [6] = system: human colon carcinoma HCT-15; assay: MTS cytotoxicity assay, HCT-15; format: cell-based
# Method: as §1, §2, §3
# [7] = system: HL60-VCR; settings: MDR cell line characterisation; cited from earlier work
# [8] = Homo sapiens, HT-29, 48 h incubation
# [9] = Homo sapiens, Caco-2, 48 h incubation
# [10] = Homo sapiens, MCF7, 48 h incubation
# [11] = Homo sapiens, K562, 48 h incubation
# [12] = Homo sapiens, HCT-15, 48 h incubation
compound,measurement,setting,value
6-(2-(Dipyridin-2-yl)methylene)hydrazinyl)-9-methyl-9H-purine [I-23],GI50,[1]; 48 h incubation,0.9 µM
"C[C@]1(O)C(O)[C@H](n2cnc3c(NN=C(c4ccccc4)c4ccccn4)ncnc32)O[C@@H]1CO (stereo partly drawn) [I-1, (2R,3S,5R)-2-(hydroxymethyl)-3-methyl-5-(6-(2-(phenyl(pyridin-2-yl)methylene)hydrazinyl)-9H-purin-9-yl)tetrahydrofuran-3,4-diol]",GI50,[2]; [8],57.2 µM
same,GI50,[3]; [9],43.2 µM
same,GI50,"[4]; Homo sapiens, HeLa",68.9 µM
same,GI50,[5]; [10],> 100 µM
same,GI50,[1]; [11],48.1 µM
"CC(=NNc1ncnc2c1ncn2C1O[C@H](CO)[C@@](C)(O)[C@H]1O)c1ccccn1 (stereo partly drawn) [I-2, (2R,3S,4R)-2-(hydroxymethyl)-3-methyl-5-(6-(2-(1-(pyridin-2-yl)ethylidene)hydrazinyl)-9H-purin-9-yl)tetrahydrofuran-3,4-diol]",GI50,[2]; [8],17.6 µM
same,GI50,[3]; [9],23 µM
same,GI50,"[4]; Homo sapiens, HeLa",21 µM
same,GI50,[5]; [10],13.5 µM
same,GI50,[1]; [11],11 µM
"CC(=NNc1ncnc2c1ncn2C1O[C@H](CO)[C@@](C)(O)[C@H]1O)c1cccnc1 (stereo partly drawn) [I-3, (2R,3S,4R)-2-(hydroxymethyl)-3-methyl-5-(6-(2-(1-(pyridin-3-yl)ethylidene)hydrazinyl)-9H-purin-9-yl)tetrahydrofuran-3,4-diol]",GI50,[2]; [8],15 µM
same,GI50,[3]; [9],2.2 µM
same,GI50,"[4]; Homo sapiens, HeLa",17 µM
same,GI50,[5]; [10],17 µM
same,GI50,[6]; [12],11.2 µM
same,GI50,[1]; [11],12 µM
C[C@@]1(O)[C@@H](CO)OC(n2cnc3c(NN=Cc4ccccn4)ncnc32)[C@@H]1O (stereo partly drawn) [I-4],GI50,[2]; 48 h incubation,27 µM
same,GI50,[3]; 48 h incubation,7.6 µM
same,GI50,[4],7.6 µM
same,GI50,[5]; 48 h incubation,22 µM
same,GI50,[6]; 48 h incubation,3.9 µM
same,GI50,[1]; 48 h incubation,6.8 µM
"OC[C@H]1O[C@@H](n2cnc3c(NN=C(c4ccccc4)c4ccccn4)ncnc32)C(O)C1O (stereo partly drawn) [I-5, (2R,5R)-2-(hydroxymethyl)-5-(6-(2-(phenyl(pyridin-2-yl)methylene)hydrazinyl)-9H-purin-9-yl)tetrahydrofuran-3,4-diol]",GI50,[2]; [8],52.5 µM
same,GI50,[3]; [9],64.5 µM
same,GI50,"[4]; Homo sapiens, HeLa",36 µM
same,GI50,[5]; [10],44.9 µM
same,GI50,[1]; [11],49 µM
"CC(=NNc1ncnc2c1ncn2[C@@H]1O[C@H](CO)C(O)C1O)c1ccccn1 (stereo partly drawn) [I-6, (2R,5R)-2-(hydroxymethyl)-5-(6-(2-(1-(pyridin-2-yl)ethylidene)hydrazinyl)-9H-purin-9-yl)tetrahydrofuran-3,4-diol]",GI50,[2]; [8],38 µM
same,GI50,[3]; [9],14 µM
same,GI50,"[4]; Homo sapiens, HeLa",12 µM
same,GI50,[5]; [10],15 µM
same,GI50,[1]; [11],11 µM
"CC(=NNc1ncnc2c1ncn2[C@@H]1O[C@H](CO)C(O)C1O)c1cccnc1 (stereo partly drawn) [I-7, (2R,5R)-2-(hydroxymethyl)-5-(6-(2-(1-(pyridin-3-yl)ethylidene)hydrazinyl)-9H-purin-9-yl)tetrahydrofuran-3,4-diol]",GI50,[2]; [8],144 µM
same,GI50,[3]; [9],63.3 µM
same,GI50,"[4]; Homo sapiens, HeLa",25 µM
same,GI50,[5]; [10],93 µM
same,GI50,[1]; [11],45 µM
"CC(=NNc1ncnc2c1ncn2[C@@H]1O[C@H](CO)C(O)C1O)c1ccncc1 (stereo partly drawn) [I-8, (2R,5R)-2-(hydroxymethyl)-5-(6-(2-(1-(pyridin-4-yl)ethylidene)hydrazinyl)-9H-purin-9-yl)tetrahydrofuran-3,4-diol]",GI50,[2]; [8],213 µM
same,GI50,[3]; [9],49.6 µM
same,GI50,"[4]; Homo sapiens, HeLa",60 µM
same,GI50,[5]; [10],68 µM
same,GI50,[1]; [11],56 µM
OC[C@H]1OC(n2cnc3c(NN=Cc4cccnc4)ncnc32)[C@H](O)[C@@H]1O (stereo partly drawn) [I-10],GI50,[2]; 48 h incubation,18 µM
same,GI50,[3]; 48 h incubation,0.9 µM
same,GI50,[4],18 µM
same,GI50,[5]; 48 h incubation,14 µM
same,GI50,[6]; 48 h incubation,22 µM
same,GI50,[1]; 48 h incubation,22 µM
OC[C@H]1OC(n2cnc3c(NN=Cc4ccncc4)ncnc32)[C@H](O)[C@@H]1O (stereo partly drawn) [I-11],GI50,[2]; 48 h incubation,79 µM
same,GI50,[3]; 48 h incubation,11 µM
same,GI50,[4],56 µM
same,GI50,[5]; 48 h incubation,70 µM
same,GI50,[6]; 48 h incubation,71 µM
same,GI50,[1]; 48 h incubation,58 µM
OC[C@H]1OC(n2cnc3c(NN=C(c4ccccn4)c4ccccn4)ncnc32)[C@H](O)[C@@H]1O (stereo partly drawn) [I-13],GI50,[2]; 48 h incubation,0.8 µM
same,GI50,[3]; 48 h incubation,0.2 µM
same,GI50,[4],0.3 µM
same,GI50,[5]; 48 h incubation,0.9 µM
same,GI50,[6]; 48 h incubation,< 1 µM
same,GI50,[1]; 48 h incubation,0.3 µM
"N#Cc1ccccc1C=NNc1ncnc2c1ncn2C1O[C@H](CO)[C@@H](O)[C@H]1O (stereo partly drawn) [I-14, 2-((2-(9-((3R,4S,5R)-3,4-dihydroxy-5-(hydroxymethyl)tetrahydrofuran-2-yl)-9H-purin-6-yl)hydrazono)methyl)benzonitrile]",GI50,[2]; [8],1.2 µM
same,GI50,[3]; [9],0.8 µM
same,GI50,"[4]; Homo sapiens, HeLa",0.8 µM
same,GI50,[5]; [10],1.9 µM
same,GI50,[6]; [12],< 1 µM
same,GI50,[1]; [11],0.7 µM
"Cc1ccc(C=NNc2ncnc3c2ncn3C2O[C@H](CO)[C@@H](O)[C@H]2O)s1 (stereo partly drawn) [I-15, (2R,3S,4R)-2-(hydroxymethyl)-5-(6-(2-((5-methylthiophen-2-yl)methylene)hydrazinyl)-9H-purin-9-yl)tetrahydrofuran-3,4-diol]",GI50,[2]; [8],16 µM
same,GI50,[3]; [9],1.8 µM
same,GI50,"[4]; Homo sapiens, HeLa",4.3 µM
same,GI50,[5]; [10],16 µM
same,GI50,[6]; [12],5 µM
same,GI50,[1]; [11],19 µM
OC[C@H]1OC(n2cnc3c(NN=Cc4ccccc4)ncnc32)[C@H](O)[C@@H]1O (stereo partly drawn) [I-16],GI50,[2]; 48 h incubation,13 µM
same,GI50,[3]; 48 h incubation,7.6 µM
same,GI50,[4],3 µM
same,GI50,[5]; 48 h incubation,10 µM
same,GI50,[6]; 48 h incubation,5.5 µM
same,GI50,[1]; 48 h incubation,15 µM
"CC(=NNc1ncnc2c1ncn2C1O[C@H](CO)[C@@H](O)[C@H]1O)c1ccccc1 (stereo partly drawn) [I-17, (2R,3S,4R)-2-(hydroxymethyl)-5-(6-(2-(1-phenylethylidene)hydrazinyl)-9H-purin-9-yl)tetrahydrofuran-3,4-diol]",GI50,[2]; [8],2.6 µM
same,GI50,[3]; [9],3.1 µM
same,GI50,"[4]; Homo sapiens, HeLa",1.6 µM
same,GI50,[5]; [10],3.1 µM
same,GI50,[6]; [12],4.6 µM
same,GI50,[1]; [11],5 µM
"c1ccc(C(=NNc2ncnc3[nH]cnc23)c2ccccn2)cc1 [I-19, 6-(2-(Phenyl(pyridin-2-yl)methylene)hydrazinyl)-9H-purine]",GI50,[2]; [8],0.9 µM
same,GI50,[3]; [9],0.9 µM
same,GI50,"[4]; Homo sapiens, HeLa",1.4 µM
same,GI50,[5]; [10],0.9 µM
same,GI50,[6]; [12],< 1 µM
same,GI50,[1]; [11],0.9 µM
"c1ccc(C(=NNc2ncnc3[nH]cnc23)c2ccccn2)nc1 [I-20, 6-(2-(Dipyridin-2-ylmethylene)hydrazinyl)-9H-purine]",GI50,[1]; [11],0.1 µM
"Cc1ccc(C=NNc2ncnc3[nH]cnc23)s1 [I-21, 6-[2-((5-Methylthiophen-2-yl)methylene)hydrazinyl]-9H-purine]",GI50,[2]; [8],35 µM
same,GI50,[3]; [9],39 µM
same,GI50,"[4]; Homo sapiens, HeLa",38 µM
same,GI50,[5]; [10],11 µM
same,GI50,[6]; [12],40 µM
same,GI50,[1]; [11],11 µM
C(=NNc1ncnc2[nH]cnc12)c1ccc[nH]1 [I-22],GI50,[2]; 48 h incubation,6.9 µM
same,GI50,[3]; 48 h incubation,> 100 µM
same,GI50,[4],12 µM
same,GI50,[5]; 48 h incubation,9.2 µM
same,GI50,[6]; 48 h incubation,5.6 µM
same,GI50,[1]; 48 h incubation,7.1 µM
CC[C@]1(O)C[C@H]2CN(CCc3c([nH]c4ccccc34)[C@@](C(=O)OC)(c3cc4c(cc3OC)N(C=O)[C@H]3[C@@](O)(C(=O)OC)[C@H](OC(C)=O)[C@]5(CC)C=CCN6CC[C@]43[C@@H]65)C2)C1 [vincristine],resistance expressed by HL60-VCR,[7],1300 fold

# From patent US9133230B2, “Hydrazone derivatives having potent antitumor activity toward multi-drug resistant tumor cells” (THE UNITED STATES OF AMERICA AS REPRESENTED BY THE …, priority 2011, dated 2015)
